How the values were obtained:
[1] = system: M579-A2-luc melanoma tumour cells; test: Luciferase-based TNF killing assay; assay type: cell-based, human; conditions: TNF 10 ng/mL; inhibitor between about 10 and 100 nM
Procedure: PANC1-luc is an HLA-A2.1+ luciferase-expressing pancreatic adenocarcinoma (PDAC) tumour cell line, and M579-A2-luc is an HLA-A2.1+ luciferase-expressing melanoma tumour cell line.
After lysis, luciferase assay buffer is added and immediately the luciferase intensity was measured by using the TECAN-Spark microplate reader.

[2] = system: human breast skin explants; test: Human skin explant eumelanisation
SIK3 [3] = target: T1, SIK3 (Homo sapiens (Human), UniProt Q9Y2K2); test: SIK3 kinase inhibition (IC50)
HCT116 cells = test: TNF-sensitised cell viability assay (CellTiter-Glo); conditions: Homo sapiens, HCT-116, read-out: HCT116 IC50 (at 10 ng/ml rHuTNF)
[4] = female, C57BL/6, mouse, in vivo, 7 days
[5] = Human hepatocyte stability; assay type: in vitro ADME
[6] = Screening PK in mice after 30 mg/kg po; conditions: for concentration at 6 h: mice, 30 mg/kg po
[7] = MDCK wild type permeability/efflux; conditions: dog
[8] = Mouse hepatocyte stability; assay type: in vitro ADME; conditions: hepatocytes
SIK3 [9] = target: T1, SIK3; conditions: fold of the value of compound C7 (C7 = 1×)
CSF1R = CSF1R (Homo sapiens (Human), UniProt P07333); assay type: biochemical; conditions: Kinase Profiler
[10] = in vivo, po, 30 mg/kg
SIK2 = SIK2 (Homo sapiens (Human), UniProt Q9H0K1); test: SIK2 kinase inhibition (IC50); conditions: read-out: Kinase: IC50 (nM) SIK2
in vivo = conditions: male, CD1, mouse, po, 30 mg/kg
[11] = Murine plasma protein binding
[12] = system: SIK3 WT and KO MC38 clones; test: TNF-mediated killing of SIK3 wildtype vs SIK3 knockout MC38 clones (CTG); assay type: cell-based, mouse; conditions: sub-optimal TNF (<10 ng/ml), 72 h
Procedure: The assay was performed as follows: MC38 SIK3 KO clones were generated using CRISPR. Cells were transfected with RNP complexes (Cas9+gRNA) containing gRNAS targeting SIK3 or non-targeting sequences (control). […] Subsequently, single cell clones were generated by limiting dilution. CRISPR-derived mutations in single clones were detected by next-generation sequencing and analysed using CRISPResso. Knockout and wildtype clones were selected and plated overnight. […] Cells treated with different concentrations of inhibitor but without TNF served as no TNF control. Cell viability was measured by CTG assay.

MDR1 (P-gp) = MDR1 (P-gp) (Homo sapiens (Human), UniProt P08183); test: MDR1-MDCK effective efflux assay; conditions: dog; for efflux ratio: Table 5.1B
[13] = target: MDR1 pump (P-gp), MDCK-MDR1 cells (Homo sapiens (Human), UniProt P08183); test: MDR1-MDCK effective efflux assay; conditions: Table 5.1B
[14] = Human plasma-protein binding
[15] = system: NFKB activity in MC38 cells; test: TNF-induced NFKB activity (NFKB-dependent luciferase reporter); conditions: 10 ng/ml rMuTNF
[16] = system: HDAC4 phosphorylation in PANC-1 cells; test: HDAC4 phosphorylation (Meso Scale Discovery assay); conditions: 10 ng/mL rHuTNF, 3 h
[17] = system: MC38 murine tumour cell line; test: TNF-sensitised cell viability assay (CellTiter-Glo); conditions: Mus musculus
[18] = system: MC38 colorectal carcinoma tumours; test: MC38 syngeneic mouse tumour model (Example 8.1)
in vitro [19] = conditions: human, microsomes
[20] = Metabolite profile in hepatocytes / in vivo
Text: Metabolites are identified using high-resolution mass spectrometry.

in vitro [21] = conditions: mouse, microsomes
[22] = system: NFKB activity in PANC-1 cells; test: TNF-induced NFKB activity (NFKB-dependent luciferase reporter); conditions: 10 ng/ml rHuTNF, PANC-1 reporter cells
HCK = HCK (Homo sapiens (Human), UniProt P08631); assay type: biochemical; conditions: Kinase Profiler
[23] = total plasma concentration at 30 mg/kg p.o dose, fold of C7 (C7 = 1×)

Chain of CSF1R (P07333 20-972 limits assumed): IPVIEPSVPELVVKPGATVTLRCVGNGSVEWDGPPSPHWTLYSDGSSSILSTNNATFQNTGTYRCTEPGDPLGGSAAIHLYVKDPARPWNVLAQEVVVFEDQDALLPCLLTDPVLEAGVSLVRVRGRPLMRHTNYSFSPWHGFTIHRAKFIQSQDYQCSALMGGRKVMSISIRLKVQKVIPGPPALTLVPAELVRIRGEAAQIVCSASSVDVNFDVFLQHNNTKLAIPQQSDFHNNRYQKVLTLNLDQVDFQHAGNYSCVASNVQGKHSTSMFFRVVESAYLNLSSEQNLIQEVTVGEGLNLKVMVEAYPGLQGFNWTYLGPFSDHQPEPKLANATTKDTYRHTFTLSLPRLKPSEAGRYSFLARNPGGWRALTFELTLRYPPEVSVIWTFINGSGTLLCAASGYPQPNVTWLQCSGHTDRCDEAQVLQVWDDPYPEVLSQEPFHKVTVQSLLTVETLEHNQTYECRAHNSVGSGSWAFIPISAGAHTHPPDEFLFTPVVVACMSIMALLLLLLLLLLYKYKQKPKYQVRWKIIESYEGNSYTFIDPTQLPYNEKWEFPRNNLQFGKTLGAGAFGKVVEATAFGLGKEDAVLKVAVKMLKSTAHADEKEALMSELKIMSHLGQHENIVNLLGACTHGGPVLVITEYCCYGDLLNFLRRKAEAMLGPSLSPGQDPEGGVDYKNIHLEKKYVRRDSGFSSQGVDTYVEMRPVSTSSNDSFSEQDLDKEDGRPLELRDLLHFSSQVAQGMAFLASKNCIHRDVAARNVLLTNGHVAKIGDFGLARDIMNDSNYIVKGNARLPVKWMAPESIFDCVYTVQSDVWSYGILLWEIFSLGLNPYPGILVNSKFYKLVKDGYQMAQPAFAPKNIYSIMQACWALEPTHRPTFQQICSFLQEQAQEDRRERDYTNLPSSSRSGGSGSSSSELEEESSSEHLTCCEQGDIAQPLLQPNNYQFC

Structure (SMILES): CCOc1cccc(Cl)c1NC(=O)c1cnc(Nc2cc(N3CCN(CCO)CC3)nc(C)n2)s1 [Compound B8, N-(2-chloro-6-ethoxyphenyl)-2-((6-(4-(2-hydroxyethyl)piperazin-1-yl)-2-methylpyrimidin-4-yl)amino)thiazole-5-carboxamide]
- cytotoxicity in the presence of TNF compared to inhibitor alone [1]: fails to exhibit cytotoxicity

Structure (SMILES): Cc1nc(Nc2ncc(C(=O)Nc3c(Cl)cccc3Br)s2)cc(N2CCN(CCO)CC2)n1 [Compound B1, N-(2-bromo-6-chlorophenyl)-2-((6-(4-(2-hydroxyethyl)piperazin-1-yl)-2-methylpyrimidin-4-yl)amino)thiazole-5-carboxamide]
- cytotoxicity in the presence of TNF compared to inhibitor alone [1]: increased cytotoxicity

Structure (SMILES): COc1ccc(N(C(=O)Nc2c(C)cccc2C)c2cc(Nc3ccc(N4CCN(C)CC4)cc3)ncn2)c(OC)c1 [HG 9-91-01]
- gross pigmentation of human skin explants, passive topical application ([2]; 8 days (1×/day)): no significant gross pigmentation
- melanin content (Fontana-Masson staining), passive application ([2]; compared to control): marginally increased melanin
- gross pigmentation of human skin explants, mechanical application ([2]; rubbing via an applicator): induces significant gross pigmentation

Structure (SMILES): COc1c(F)cccc1NC(=O)c1cnc(Nc2cc(N3CCN(CCO)CC3)nc(C)n2)s1 [Compound B4, N-(3-fluoro-2-methoxyphenyl)-2-((6-(4-(2-hydroxyethyl)piperazin-1-yl)-2-methylpyrimidin-4-yl)amino)thiazole-5-carboxamide]
- cytotoxicity in the presence of TNF compared to inhibitor alone [1]: fails to exhibit cytotoxicity

Structure (SMILES): Cc1nc(Nc2ncc(C(=O)Nc3c(CF)csc3Cl)s2)cc(N2CCN(C)C(C)C2)n1 (racemic) [Compound E10, N-(2-chloro-4-(fluoromethyl)thiophen-3-yl)-2-((6-(3,4-dimethylpiperazin-1-yl)-2-methylpyrimidin-4-yl)amino)thiazole-5-carboxamide]
- IC50 (SIK3 [3]): 20 to 50 nM
- IC50 (HCT116 cells): < 100 nM
- DLT@BID dosing [4]: n.d. @30 mg/kg
- DLT@QD dosing [4]: n.d. @30 mg/kg
- HRD in vivo @BID [4]: 30 mg/kg
- HRD in vivo @QD [4]: 30 mg/kg
- Human hepatocyte stability, Half-life [5]: 21 min
- half-life ([5]; human, hepatocytes, read-out: Human hepatocyte stability, Half-life): 21 to 30 min
- microsomal CLint ([5]; human, hepatocytes, read-out: Human hepatocyte stability, Intrinsic clearance): 67 µL/min/mg
- Cmax at 2 h ([6]; mouse, plasma, po, 30 mg/kg): 374 ng/mL
- concentration at 6 h ([6]; mouse, plasma, po, 30 mg/kg, Free plasma concentration after 6 h (nM)): 3.3 nM
- concentration at 6 h ([6]; mouse, plasma, po, 30 mg/kg, Plasma concentration after 6 h (nM)): 157 nM
- AUC0-last (nM*h), relative to C7 [6, 23]: 2×
- C max (ng/ml), relative to C7 [6, 23]: 1.7×
- MRT0-last (h), relative to C7 [6, 23]: 2.8×
- t1/2 (h), relative to C7 [6, 23]: 14.5×
- Papp [7]: 10 ×10⁻⁶ cm/s
- efflux ratio [7]: 1.6
- half-life [8]: 78 min
- microsomal CLint ([8]; read-out: Mouse hepatocyte stability, Intrinsic clearance): 18 µL/min/mg
- SIK3 IC50 (nM), relative to C7 (SIK3 [9]): 0.7×
- CSF1R residual activity (CSF1R): less than 1%
- % AUCextrap, Free ([10]; male, CD1, mouse): 4.05%
- % AUCextrap, Total ([10]; male, CD1, mouse): 4.05%
- AUCinf (nM*h), Free ([10]; male, CD1, mouse): 128.06 nM·h
- AUClast (nM*h), Free ([10]; male, CD1, mouse): 122.87 nM·h
- Rsq, Free ([10]; mouse): 0.81
- Rsq, Total ([10]; mouse): 0.81
- IC50 (SIK2): < 20 nM
- AUC(0-inf) (in vivo): 6.17 µM·h
- AUC(0-t) (in vivo): 5.92 µM·h
- Cmax (in vivo): 2040 ng/mL
- MRT last (in vivo): 246 min
- Tmax (in vivo): 15 min
- half-life (in vivo): 261 min
- Murine plasma protein binding, Percentage unbound (%) ([11]; Table 5.1A): 1%
- recovery at 4 h ([11]; mouse, plasma): 101%
- TNF-mediated killing in SIK3 WT vs KO MC38 clones [12]: induced TNF-mediated killing only in SIK3 WT clones
- Papp (MDR1 (P-gp); MDCK-MDR1): 4 ×10⁻⁶ cm/s
- efflux ratio (MDR1 (P-gp); MDCK-MDR1, MDCK-MDR1 cells, Mean Efflux Ratio (MDR1)): 20 to 30
- efflux ratio (MDR1 (P-gp); MDCK-MDR1, P-gP driven efflux ratio (MDR1/wt)): 19
- MDCK-MDR1 cells, Mean Efflux Ratio (MDR1) [13]: 31
- Human plasma-protein binding, Percentage unbound (%) ([14]; Table 5.1A): 1%
- recovery at 4 h ([14]; human, plasma): 74%
- Inhibition of NFKB activity (MC38) [15]: ++
- Inhibition of HDAC4 phosphorylation [16]: ++
- IC50 ([17]; MC-38, read-out: MC38 IC50 (at 100 ng/mL rMuTNF)): < 100 nM
- EC50 ([17]; MC-38, read-out: mean EC50 of sensitising MC38 tumour cells to TNF-mediated killing): < 100 nM
- TGI ([18]; MC38, dose not repeated): 46%
- Body weight increase (%) ([18]; MC38, 30 mg/Kg, BID po): 19.8%
- Non-treatment related death ([18]; MC38, 30 mg/Kg, BID po): 0/16
- Tumour growth inhibition (%) ([18]; MC38, 30 mg/Kg, BID po): 46%
- half-life (in vitro [19]): 12 min
- microsomal CLint (in vitro [19]): 120 µL/min/mg
- quinone-imine reactive metabolite [20]: not observed
- half-life (in vitro [21]): 14 min
- microsomal CLint (in vitro [21]): 99 µL/min/mg
- Inhibition of NFKB activity (PANC-1) [22]: ++
- HCK residual activity (HCK): less than 1%
